Counter-ions that a name gives are not always drawn.
Assays:
[1] = system: HCT116 cell line; assay: Anti-proliferative activity, Alamar Blue assay; assay type: cell-based; conditions: Homo sapiens, HCT-116, 72 h
Procedure: The anti-proliferative activities of compounds of the invention can be determined by measuring the ability of the compounds to inhibition of cell growth in a number of cell lines such as the human colon cancer cell line HCT116. […] The method is based on the ability of viable cells to reduce resazurin to its fluorescent product resorufin. […] The number of viable cells is determined by Alamar Blue assay as before. Cell lines can be obtained from the ECACC (European Collection of cell Cultures).

[2] = Plasma stability studies; assay type: in vitro ADME; conditions: mouse plasma, 37° C., approximately 1 hour
Procedure: The ease with which pro-drug compounds of the invention can be converted to the active moiety can be assessed by measuring the in vitro plasma stability of the compounds. The method is based on the ability of plasma enzymes to metabolise compounds to the active moiety. Compounds are added to plasma and incubated at 37° C. for approximately 1 hour. Aliquots of plasma are removed at timed intervals and the compound extracted by the addition of acetonitrile containing an internal standard. All extracts are then analysed for parent compound, the active moiety and the internal standard using a compound specific LCMS-MS assay. Stability is measured by comparison of the peak area ratio of the parent compound and internal standard at time zero with the peak area ratio of the parent compound and internal standard in the incubated samples. Generation of the active moiety in samples is also assessed.

Row | SMILES | IC50 [1] [nM] | generation of the active moiety (2,4-dihydroxy-5-isopropyl-phenyl)-[5-(4-methyl-piperazin-1-yl)-1,3-dihydro-isoindol-2-yl]-methanone [2] | in vitro plasma stability [2]
1 | CC(C)c1cc(C(=O)N2Cc3ccccc3C2)c(O)cc1O [Example 5, (1,3-Dihydro-isoindol-2-yl)-(2,4-dihydroxy-5-isopropyl-phenyl)-methanone] | < 1000 |  | 
2 | CC(C)c1cc(C(=O)N2Cc3ccc(N4CCN(C)CC4)cc3C2)c(OC(=O)C(C)(C)C)cc1OC(=O)C(C)(C)C [Example 85, 2,2-dimethyl-propionic acid 5-(2,2-dimethyl-propionyloxy)-4-isopropyl-2-[5-(4-methyl-piperazin-1-yl)-1,3-dihydro-isoindole-2-carbonyl]-phenyl ester] |  | formed the active moiety | range of stabilities
3 | CC(C)c1cc(C(=O)N2Cc3ccc(C(=O)N4CCNCC4)cc3C2)c(O)cc1O [Example 54, (2,4-dihydroxy-5-isopropyl-phenyl)-[5-(piperazine-1-carbonyl)-1,3-dihydro-isoindol-2-yl]-methanone hydrochloride] | < 1000 |  | 
4 | CC(C)c1cc(C(=O)N2Cc3ccc(N4CCN(C)CC4)cc3C2)c(OC(=O)N(C)C)cc1OC(=O)N(C)C [Example 86, dimethyl-carbamic acid 5-dimethylcarbamoyloxy-2-isopropyl-4-[5-(4-methyl-piperazin-1-yl)-1,3-dihydro-isoindole-2-carbonyl]-phenyl ester] |  | formed the active moiety | range of stabilities
5 | CC(=O)Oc1cc(OC(C)=O)c(C(C)C)cc1C(=O)N1Cc2ccc(N3CCN(C)CC3)cc2C1 [Example 84, acetic acid 5-acetoxy-4-isopropyl-2-[5-(4-methyl-piperazin-1-yl)-1,3-dihydro-isoindole-2-carbonyl]-phenyl ester] |  | formed the active moiety | range of stabilities
